Laboratory results from PubChem BioAssay (NCI).
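Protocol summary: plate cells (96-well), add compound at 5 concentrations, incubate 48 h, interpolate endpoints linearly. At the TGI there is no net growth.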

Tests used:
Experiment in all cases: growth of human tumour cells (NCI), 48 h
UACC-257 melanoma = system: UACC-257 melanoma
SF-268 CNS = system: SF-268 CNS
RPMI-8226 leukemia = system: RPMI-8226 leukemia
XF 498 CNS = system: XF 498 CNS
SW-620 colon = system: SW-620 colon
SK-MEL-2 melanoma = system: SK-MEL-2 melanoma
CAKI-1 renal = system: CAKI-1 renal
LXFL 529 NSCLC = system: LXFL 529 NSCLC
DMS 114 small cell lung = system: DMS 114 small cell lung
DMS 273 small cell lung = system: DMS 273 small cell lung
SNB-78 CNS = system: SNB-78 CNS
KM20L2 colon = system: KM20L2 colon
DLD-1 colon = system: DLD-1 colon
RXF-631 renal = system: RXF-631 renal
HCT-116 colon = system: HCT-116 colon
M19-MEL melanoma = system: M19-MEL melanoma

Compound	TGI (UACC-257 melanoma)	TGI (SF-268 CNS)	TGI (RPMI-8226 leukemia)	TGI (XF 498 CNS)	TGI (SW-620 colon)	TGI (SK-MEL-2 melanoma)	TGI (CAKI-1 renal)	TGI (LXFL 529 NSCLC)	TGI (DMS 114 small cell lung)	TGI (DMS 273 small cell lung)	TGI (SNB-78 CNS)	TGI (KM20L2 colon)	TGI (DLD-1 colon)	TGI (RXF-631 renal)	TGI (HCT-116 colon)	TGI (M19-MEL melanoma)
Cc1[nH]n(-c2ccccc2)c(=S)c1C(=O)c1ccccc1	> 100 µM	> 100 µM	50.2 µM	> 100 µM	> 100 µM	> 100 µM	> 100 µM	37.2 µM	99.1 µM	> 100 µM	64.8 µM	> 100 µM	60.9 µM	61.6 µM		
Cc1c2n(c3ccccc13)CC1C2N(C)OC1(C)C (centres undefined)	> 100 µM	> 100 µM	> 100 µM	> 100 µM		> 100 µM	> 100 µM		> 100 µM	> 100 µM	> 100 µM	> 100 µM	> 100 µM		> 100 µM	> 100 µM
CCC12C=CCN3CC[C@]4(C(=C(C(=O)OC)[C@@H]1Nc1ccn(C5OC(COC(C)=O)C(OC(C)=O)C5OC(C)=O)c(=O)n1)Nc1ccccc14)C32 (some centres undefined)	3.62 µM	10.9 µM	14.7 µM	9.63 µM	9.41 µM	5.58 µM	15.8 µM	8.94 µM		8.54 µM	13.8 µM	8.19 µM	9.14 µM		7.37 µM	7.45 µM
CC1=NN(C(=O)c2ccc(Cl)cc2)C(=O)/C1=C/c1cccc(O)c1	> 100 µM	> 100 µM	> 100 µM		> 100 µM	> 100 µM	> 100 µM	> 100 µM	> 100 µM		> 100 µM	> 100 µM	> 100 µM		> 100 µM	> 100 µM
CCN(CC)CC(C)(C)C(=O)/C=C/c1ccc(C)cc1		22.1 µM		20.4 µM	15.7 µM	25.7 µM	29.1 µM	20.1 µM			26.3 µM	13.3 µM	32.4 µM	55.7 µM	27.4 µM	79.6 µM
Cc1ccc(N2C(=O)/C(=c3\s/c(=C(/N)O)c(=N)n3-c3ccccc3)SC2=S)cc1	> 100 µM	> 100 µM	> 100 µM		> 100 µM			> 100 µM					> 100 µM		> 100 µM	> 100 µM
CCC(C)(C)NC1=C(NC(C)=O)C(=O)c2ccccc2C1=O	70.7 µM	> 75 µM		40.2 µM	> 75 µM	58.2 µM		> 75 µM		> 75 µM	> 75 µM	> 75 µM	> 75 µM		> 75 µM	23.7 µM
c1ccc2cc3n[se]nc3cc2c1	> 100 µM	> 100 µM	> 100 µM		> 100 µM	> 100 µM	> 100 µM	> 100 µM	> 100 µM	> 100 µM	> 100 µM	> 100 µM	> 100 µM	> 100 µM		
C=C1C(=O)C=C2C=C3C(=O)C(C)(C)C[C@]3(O)C12C (some centres undefined)	9.13 µM	28.2 µM	3.2 µM	3.56 µM	3.23 µM	33.2 µM	3.99 µM	2.64 µM	3.61 µM	14 µM	21 µM			30.9 µM	9 µM	11.3 µM
CC(C)NC(C)Cc1ccccc1 (centres undefined)	> 100 µM	> 100 µM	> 100 µM		> 100 µM	> 100 µM	> 100 µM	> 100 µM	> 100 µM	> 100 µM	> 100 µM	> 100 µM	> 100 µM	> 100 µM	> 100 µM	> 100 µM
CC(C)(C)C1CCC2c3c([nH]c4ccccc34)C3C(=O)N(c4ccc(Br)cc4)C(=O)C3C2C1 (centres undefined)	50.2 µM	49.8 µM	38.6 µM	76.2 µM	49.4 µM	54.6 µM	43.8 µM	48.1 µM	41.6 µM	31.9 µM	> 100 µM	42.2 µM	> 100 µM		91.9 µM	33.2 µM
CCCCNc1nc(SC)nc2nc[nH]c12	> 100 µM	> 100 µM	> 100 µM		> 100 µM	> 100 µM	> 100 µM								> 100 µM	
COC(=O)[C@]1(c2cc3ccccc3[nH]2)CC2CN(CC(=O)N(C)OC)C1C1OC(C)(C)OC21 (some centres undefined)	> 100 µM	> 100 µM	74 µM		> 100 µM	> 100 µM	> 100 µM								> 100 µM	
Nc1nc(=O)n(C2OC(CO)C(O)C2O)cc1F (centres undefined)	> 100 µM	> 100 µM	> 100 µM	> 100 µM	> 100 µM	> 100 µM	> 100 µM		3.26 µM	> 100 µM	> 100 µM	> 100 µM	> 100 µM		> 100 µM	> 100 µM
C=CCC1(O)c2cccc(O)c2C(=O)c2c(O)cccc21	68.3 µM	> 100 µM	> 100 µM		> 100 µM	51.2 µM	> 100 µM								57.7 µM	
CCCCc1ccc(Nc2nc(Cl)c3[nH]cnc3n2)cc1	30.8 µM	59.9 µM	> 100 µM		37.4 µM	31 µM	54.1 µM								29.9 µM	
C[n+]1c2ccccc2c(NC(CCC(N)=O)C(=O)O)c2ccccc21 (centres undefined)	> 100 µM	> 100 µM	> 100 µM	> 100 µM	> 100 µM	> 100 µM		> 100 µM	> 100 µM	> 100 µM	> 100 µM	> 100 µM	> 100 µM	> 100 µM	> 100 µM	> 100 µM
COC(=O)[C@]1(c2cc3ccccc3n2S(=O)(=O)c2ccccc2)CC2CCC1NC2 (some centres undefined)	32 µM	40 µM	23.1 µM		31.3 µM	31.7 µM	29.4 µM								26.6 µM	
COC(=O)C(Cc1ccccc1)NS(=O)(=O)c1ccc(-c2c3nc(c(-c4ccc(S(=O)(=O)NC(Cc5ccccc5)C(=O)OC)cc4)c4ccc([nH]4)c(-c4ccc(S(=O)(=O)NC(Cc5ccccc5)C(=O)OC)cc4)c4nc(c(-c5ccc(S(=O)(=O)NC(Cc6ccccc6)C(=O)OC)cc5)c5ccc2[nH]5)C=C4)C=C3)cc1 (centres undefined)	> 100 µM	> 100 µM	> 100 µM		> 100 µM	> 100 µM	> 100 µM								> 100 µM	

Compound	TGI (UACC-257 melanoma)	TGI (SF-268 CNS)	TGI (RPMI-8226 leukemia)	TGI (XF 498 CNS)	TGI (SW-620 colon)	TGI (SK-MEL-2 melanoma)	TGI (CAKI-1 renal)	TGI (LXFL 529 NSCLC)	TGI (DMS 114 small cell lung)	TGI (DMS 273 small cell lung)	TGI (SNB-78 CNS)	TGI (KM20L2 colon)	TGI (DLD-1 colon)	TGI (RXF-631 renal)	TGI (HCT-116 colon)	TGI (M19-MEL melanoma)
CC(C)(C)OC(=O)C1/C(=C/CO)CN1C(=O)OC(C)(C)C (centres undefined)	> 100 µM	> 100 µM	> 100 µM		> 100 µM	> 100 µM	> 100 µM								> 100 µM	
COc1cc2cc(C(=O)N3CC(COS(C)(=O)=O)c4c3cc([N+](=O)[O-])c3ccccc43)[nH]c2c(OC)c1OC (centres undefined)	> 31.6 µM	> 31.6 µM	> 31.6 µM		> 31.6 µM	> 31.6 µM	> 50 µM								15.6 µM	
Cc1ccc(S(=O)(=O)n2ccn3c(=O)cc(C)nc23)cc1	> 10 µM	> 10 µM	> 10 µM		> 10 µM	> 10 µM	> 10 µM								> 10 µM	
COc1cc(Cn2c3c(c4cc(O)ccc42)C(=O)c2ccccc2C3=O)cc(OC)c1	> 100 µM	15.5 µM	3.73 µM		> 100 µM	> 100 µM	55.5 µM								12.7 µM	
CCOc1ccc(N=Cc2cc(OC)c(OC)c(OC)c2)cc1	> 100 µM	> 100 µM	45.1 µM	> 100 µM	32.1 µM	> 100 µM	> 100 µM	> 100 µM	> 100 µM	> 100 µM	> 100 µM	> 100 µM	> 100 µM		> 100 µM	> 100 µM
C(/COc1cccnc1)=N\NC1=NCCN1	> 100 µM	> 100 µM	> 100 µM	> 100 µM	> 100 µM	> 100 µM	> 100 µM	> 100 µM	> 100 µM	> 100 µM	> 100 µM	> 100 µM	> 100 µM		> 100 µM	> 100 µM
CC(C)(C)OC(=O)C(C1NC(C(=O)O)C(C)(C)S1)N1C(=O)c2ccccc2C1=O (centres undefined)	> 100 µM	> 100 µM	> 100 µM		> 100 µM	> 100 µM	> 100 µM								> 100 µM	
c1ccc(C2CC(N3CCOCC3)=Nc3ccccc3N2)cc1 (centres undefined)	> 100 µM	> 100 µM	> 100 µM		> 100 µM	> 100 µM	> 100 µM								> 100 µM	
COc1cc2c[n+](C)c3c4ccccc4ccc3c2cc1OC	21 µM	6.77 µM	10.1 µM		> 63.6 µM	34.2 µM	> 100 µM								> 67.7 µM	
Cn1cc(-c2ccc(CCOC3CCCCO3)cc2)c2c(C#N)cccc21 (centres undefined)	> 100 µM	> 100 µM	> 100 µM		> 100 µM	> 100 µM	> 100 µM								> 100 µM	
Cc1ccc(S(=O)(=O)C2=c3ncccc3=C3C(=O)c4ccccc4C(=O)C32)cc1 (centres undefined)	> 100 µM	> 90.3 µM	> 100 µM		> 100 µM	> 100 µM	> 100 µM	> 100 µM	> 100 µM	> 100 µM	> 100 µM		> 100 µM		> 100 µM	> 100 µM
Cc1ccc2c(c1)NC(=O)C(N=[N+]=[N-])(c1ccccc1)C2=O (centres undefined)	79.7 µM	> 100 µM		60.2 µM	> 100 µM	36.2 µM	78.1 µM	66.1 µM	81.1 µM	28.6 µM	64.3 µM	74.6 µM	> 100 µM		79.4 µM	40 µM
Cc1ccc(C2SC(N)=Nc3c2c(C)nn3C(=O)c2ccncc2)cc1 (centres undefined)	> 10 µM	> 10 µM	> 10 µM		> 10 µM	> 10 µM	> 10 µM								> 10 µM	
Nc1ncnc2c1ncn2CC(OCP(=O)(O)O)Oc1ccccc1 (centres undefined)	> 100 µM	> 100 µM	> 100 µM		> 100 µM	> 100 µM	> 100 µM								> 100 µM	
COc1ccc(OC)c(C2CCc3cnc4nc(N)nc(N)c4c3C2)c1 (centres undefined)	> 100 µM	> 100 µM	> 100 µM		> 100 µM	> 100 µM	> 100 µM								> 100 µM	
Cc1c(-c2ccccc2)n(C)c2cn[nH]c(=O)c12	> 100 µM	> 100 µM	> 100 µM		> 100 µM	48 µM	> 100 µM								> 100 µM	
Cc1cccc(C)c1NC(=S)/N=C/C1=C(O)c2ccccc2C1=O	> 88.5 µM	> 100 µM	31 µM		> 100 µM	> 83.3 µM	68.9 µM								> 59.8 µM	
C=CCCCC1(C)CCCCNC1=O (centres undefined)	> 10 µM	> 10 µM	> 10 µM		> 10 µM	> 10 µM	> 10 µM								> 10 µM	
